The results in this text go back to publication PMC11785791, “Cryo-EM structure of the calcium-sensing receptor complexed with the kokumi substance γ-glutamyl-valyl-glycine” (Scientific Reports, 2025).

The target of assay [1] is T1, human CaSR P39S mutant (Homo sapiens, UniProt P41180, P39S).
T1 construct: expressed in transfected cells; host or cells: PEAKrapid cells (ATCC), pcDNA 3.1, transient transfection
T1 sequence (P41180 20-1078 P39S): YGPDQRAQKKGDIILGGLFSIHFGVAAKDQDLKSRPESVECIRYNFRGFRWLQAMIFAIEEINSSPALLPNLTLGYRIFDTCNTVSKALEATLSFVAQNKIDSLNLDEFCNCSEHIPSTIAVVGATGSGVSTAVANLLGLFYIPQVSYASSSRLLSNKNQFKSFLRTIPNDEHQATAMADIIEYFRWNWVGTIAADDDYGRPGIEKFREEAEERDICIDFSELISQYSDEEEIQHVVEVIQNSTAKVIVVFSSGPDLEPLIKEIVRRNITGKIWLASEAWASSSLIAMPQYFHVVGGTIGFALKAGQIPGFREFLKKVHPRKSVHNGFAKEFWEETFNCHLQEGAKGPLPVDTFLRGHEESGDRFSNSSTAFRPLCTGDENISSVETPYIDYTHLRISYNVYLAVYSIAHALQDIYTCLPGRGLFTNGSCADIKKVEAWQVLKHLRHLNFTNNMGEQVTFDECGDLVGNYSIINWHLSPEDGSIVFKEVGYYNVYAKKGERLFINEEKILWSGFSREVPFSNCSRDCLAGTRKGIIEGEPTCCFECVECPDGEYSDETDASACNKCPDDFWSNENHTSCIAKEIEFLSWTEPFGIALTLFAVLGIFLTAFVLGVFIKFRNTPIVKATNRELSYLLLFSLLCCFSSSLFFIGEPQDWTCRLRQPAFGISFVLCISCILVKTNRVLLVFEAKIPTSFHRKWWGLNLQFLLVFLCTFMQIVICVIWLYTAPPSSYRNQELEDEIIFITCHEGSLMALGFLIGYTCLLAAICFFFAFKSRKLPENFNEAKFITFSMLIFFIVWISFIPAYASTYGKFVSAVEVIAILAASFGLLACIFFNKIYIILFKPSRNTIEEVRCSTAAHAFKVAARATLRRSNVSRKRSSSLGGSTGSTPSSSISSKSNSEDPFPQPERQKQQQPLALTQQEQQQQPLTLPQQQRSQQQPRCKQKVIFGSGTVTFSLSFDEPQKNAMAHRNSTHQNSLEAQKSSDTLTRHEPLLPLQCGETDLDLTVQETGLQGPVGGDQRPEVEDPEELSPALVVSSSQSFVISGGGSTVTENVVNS
The assay is described as follows: Calcium mobilization assay, CaSR P39S mutant. The class given is cell-based. The conditions noted are these: for Response in calcium mobilization assay: in words. On the procedure:
(§1) The CaSR receptor responsiveness was assessed by using PEAK^rapid cells (ATCC, Manassas, VA, USA) transiently transfected with the receptor DNA by the method reported by Kitajima et al.[6]. Briefly, human CaSR or its mutant cDNA with a signal sequence (MAFYSCCWVLLALTWHTSA) followed by FLAG-tag (DYKDDDDK) were inserted into pcDNA 3.1 expression vectors in Opti-MEM I medium (Thermo Fisher Scientific), mixed with FuGENE 6 (Roche), and poured onto PEAK^rapid cells grown at a submaximal concentration. After culturing for 24 h in 96-well plates, the cells were incubated with 5 µM Calcium-5 solution (Calcium-5 assay kit, Molecular Devices) for 45–60 min, and measurements were performed using a plate reader (FDSS/µCELL, Hamamatsu Photonics, Shizuoka, Japan) and its associated software. The activation of CaSR expressed in cells increases the intracellular Ca^2+ concentration, which is measured using a Ca^2+-sensitive dye. The binding of Ca^2+ to the Ca^2+-sensitive dye increases dye fluorescence, with excitation at 485 nm and emission at 525 nm. Test compounds were dissolved and administered in the assay buffer (146 mM NaCl, 1 mM MgSO4, 20 mM HEPES, 1 mM CaCl2, 2.5 mM probenecid, and 1.39 mM glucose, pH 7.4). Transiently transfected cells were challenged with compounds and compared with the vehicle alone and/or mock-transfected cells. The concentration dependence of the fluorescence intensity (influx of Ca^2+) was analyzed using the plate reader at 1 s intervals for 180 s. For the dose–response curve calculations, peak fluorescence responses after the addition of compounds were corrected for, normalized to the background fluorescence (ΔF/F = –F − F0)/F0), and baseline noise was subtracted. Dose–response curves were calculated by non-linear regression using GraphPad PRISM 8.0.

For assay [2], the target named is T2, human CaSR F42S mutant (Homo sapiens, UniProt P41180, F42S).
T2 construct: expressed in transfected cells; host or cells: PEAKrapid cells (ATCC), pcDNA 3.1, transient transfection
T2 sequence (P41180 20-1078 F42S): T1 sequence (P41180 20-1078 P39S) with S20P, F23S
Put plainly: Calcium mobilization assay, CaSR F42S mutant. The class given is cell-based. The conditions noted are these: for Response in calcium mobilization assay: in words. On the procedure:
as §1

Residue numbers refer to the chain shown, from its start. *1 amine or outer side, *2 acyl side, *3 side chain or, on linkers, in order; H or OH if unused. Where a SMILES comes first, the peptide text is derived from it. γGlu = O=C(O)[CH](CCC(=O)[*:2])N[*:1]

For `CC(C)[C@H](NC(=O)CC[C@H](N)C(=O)O)C(=O)O` [γ-EV, γ-glutamyl-valine], the “Response in calcium mobilization assay” value in assay [1] and in assay [2] was “no response” in each case.

For the compound `CC(C)C(NC(=O)CCC(N)C(=O)O)C(=O)NCC(=O)O` (stereo not drawn) [γ-EVG, γ-glutamyl-valyl-glycine] (γGlu-Val-Gly-OH; configuration not given here), the “Response in calcium mobilization assay” value in assay [1] is “large decrease in the response”.

For the compound `N[C@@H](Cc1ccc(O)cc1)C(=O)O` [L-Tyr, L-tyrosine], the “Response in calcium mobilization assay” value in assay [1] and in assay [2] was “no response” each time.

Regarding `[Ca+2].[Cl-].[Cl-]` [CaCl2], the “Emax (% of wild-type values)” value in assay [1] was 74.5 % of WT; in assay [2], 87.0 % of WT. Further, the EC50 in assay [1] (mean ± s.e.m., n = 3) is 7.52 ± 0.23 mM; in assay [2] (mean ± s.e.m., n = 3), 6.6 ± 0.3 mM.
